The assay concerns the target T1, OCTN2 (Homo sapiens, UniProt O76082).
T1 construct: gene SLC22A5
T1 sequence (O76082 1-557): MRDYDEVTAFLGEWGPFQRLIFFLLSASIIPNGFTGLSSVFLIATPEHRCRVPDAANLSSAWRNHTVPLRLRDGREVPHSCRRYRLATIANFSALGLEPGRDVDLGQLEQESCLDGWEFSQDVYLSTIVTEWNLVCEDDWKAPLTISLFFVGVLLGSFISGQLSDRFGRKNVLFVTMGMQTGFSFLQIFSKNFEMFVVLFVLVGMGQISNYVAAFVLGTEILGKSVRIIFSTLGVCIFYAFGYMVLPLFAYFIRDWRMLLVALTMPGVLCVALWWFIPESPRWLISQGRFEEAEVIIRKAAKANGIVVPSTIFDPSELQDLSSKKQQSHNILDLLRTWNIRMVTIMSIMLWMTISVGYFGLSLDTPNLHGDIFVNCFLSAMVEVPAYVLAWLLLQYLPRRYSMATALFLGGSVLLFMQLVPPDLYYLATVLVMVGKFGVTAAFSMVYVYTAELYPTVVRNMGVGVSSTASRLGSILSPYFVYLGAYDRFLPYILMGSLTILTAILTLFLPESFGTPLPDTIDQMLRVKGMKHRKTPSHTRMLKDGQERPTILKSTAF
Description: inhibition of [3H]-acetyl-L-carnitine uptake in ATI-like and A549 cells at […] (uptake reduced to […] in A549). The class given is cell-based. Conditions: read-out: % of control uptake at 500 μM.

In the case of `C[N+](C)(C)C[C@@H](O)CC(=O)[O-]` [D-carnitine], the remaining activity at 500 µM was 25.8 ± 1.3%.
